Results on four compounds are retold here after patent publication US7972800B2, “Screening method for binding property or signal transduction alterations” (Takeda Pharmaceutical Company Limited, priority 2003, dated 2011).

For one experiment, the system named is rat GPR39. Type of experiment: cell-based. The following applies: FLIPR, Fluo-3AM (FIG. 9 through FIG. 13). How it is done: (§1) Using the CHO cell line where rat GPR39 was stably expressed, the agonist activity of metal ions was detected using FLIPR in terms of the intracellular calcium-increasing reaction as an indicator. The CHO cell line used, wherein rat GPR39 was stably expressed, was cultured in HAM's αMEM (Invitrogen Corp.) containing 10% calf fetal serum (Invitrogen Corp.). On the day before the assay was conducted, the human GPR39-expressing CHO cell line was cultured in a culture flask to reach a confluent state. After washing with PBS, the cells were scraped off using trypsin and centrifuged for recovery. The cells were then suspended in medium and the suspension was adjusted to 3×10^5 cells/ml. Then, the suspension was dispensed onto a black walled 96-well plate (Costar) in 100 μl each per well, followed by incubation overnight in a CO2 incubator.
(§2) On the day when the assay was conducted, various test samples were added to the cells and the changes of intracellular calcium levels in this case were determined by FLIPR (Molecular Device). In order to determine the changes in intracellular calcium levels on FLIPR, the cells were pre-treated by the following procedures. First, for the purpose of adding a fluorescent dye Fluo-3AM (DOJIN) to the cells or washing the cells immediately before the FLIPR assay, an assay buffer was prepared. A solution was prepared by adding 20 ml of 1M HEPES (pH 7.4) (DOJIN) to 1000 ml of HBSS (Invitrogen Corp.) (hereinafter HBSS/HEPES solution), to which solution was added 10 ml of a solution mixture obtained by dissolving 710 mg of Probenecid (Sigma) in 5 ml of 1N NaOH and further adding 5 ml of HBSS/HEPES solution thereto. The resulting solution was used as the assay buffer. Next, 50 μg of Fluo-3AM was dissolved in 21 μl of DMSO (DOJIN) and an equal volume of 20% Pluronic acid (Molecular Probes) was added to and mixed with the solution. The mixture was then added to 10.6 ml of the assay buffer supplemented with 105 μl of fetal calf serum to prepare a fluorescent dye solution. The medium for the CHO cells where human GPR39 was stably expressed was removed. Immediately thereafter, the fluorescent dye solution was dispensed in 100 μl each/well and the cells were incubated in a CO2 incubator for an hour so that the fluorescent dye was taken up into the cells. The cells after the incubation was washed with the assay buffer described above and set on FLIPR. A test sample to be added to the CHO cells where rat GPR39 was stably expressed was prepared using the assay buffer and set on FLIPR at the same time. Following the pre-treatment above, the changes in intracellular calcium levels after the addition of each test sample were determined by FLIPR.

The target in another experiment is T1, mouse GPR39 (Mus musculus, UniProt Q5U431, T447P).
T1 construct: expressed in transfected cells; host or cells: CHO cells, vector pAKKO-111H
T1 sequence (Q5U431 1-456 T447P): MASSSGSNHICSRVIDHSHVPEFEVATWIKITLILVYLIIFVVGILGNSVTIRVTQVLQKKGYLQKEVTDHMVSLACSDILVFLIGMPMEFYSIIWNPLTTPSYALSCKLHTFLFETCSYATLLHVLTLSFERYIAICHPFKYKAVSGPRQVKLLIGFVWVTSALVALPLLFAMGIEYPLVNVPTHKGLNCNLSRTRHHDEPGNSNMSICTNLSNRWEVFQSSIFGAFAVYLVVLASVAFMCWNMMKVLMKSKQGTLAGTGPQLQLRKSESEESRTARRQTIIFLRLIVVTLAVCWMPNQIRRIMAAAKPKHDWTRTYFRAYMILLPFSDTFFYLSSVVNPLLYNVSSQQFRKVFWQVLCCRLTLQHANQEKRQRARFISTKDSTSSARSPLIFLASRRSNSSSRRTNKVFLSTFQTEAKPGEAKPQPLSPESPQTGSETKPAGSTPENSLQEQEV
Type of experiment: cell-based. The following applies: FLIPR, Fluo-3AM (FIG. 14 through FIG. 18). How it is done: as §1, §2
Using the CHO cell line where mouse GPR39 was stably expressed, the agonist activity of metal ions was detected on FLIPR in accordance with the procedures described in EXAMPLE 5, in terms of the intracellular calcium-increasing reaction as an indicator.

In a further experiment the target is T2, human GPR39 (Homo sapiens, UniProt O43194).
T2 sequence (O43194 1-453): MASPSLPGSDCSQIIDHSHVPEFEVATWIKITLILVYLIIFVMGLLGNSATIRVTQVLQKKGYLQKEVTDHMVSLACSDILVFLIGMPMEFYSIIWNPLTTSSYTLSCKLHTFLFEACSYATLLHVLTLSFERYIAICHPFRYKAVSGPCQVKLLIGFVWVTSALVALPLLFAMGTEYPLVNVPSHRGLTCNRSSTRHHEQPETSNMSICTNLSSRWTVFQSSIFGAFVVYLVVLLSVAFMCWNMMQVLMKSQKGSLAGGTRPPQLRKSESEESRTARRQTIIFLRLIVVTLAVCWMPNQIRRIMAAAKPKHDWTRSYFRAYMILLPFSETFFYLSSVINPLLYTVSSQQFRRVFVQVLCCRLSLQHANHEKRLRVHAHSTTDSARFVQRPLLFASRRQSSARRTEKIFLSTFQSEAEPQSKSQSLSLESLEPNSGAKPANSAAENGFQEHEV
Type of experiment: cell-based. Set-up: expressed in transfected cells; host or cells: CHO cells, vector pAKKO-111H. The following applies: FLIPR, Fluo-3AM; metal salt added, 10-300 μM (FIGS. 1-4). Here is the method:
The human GPR39-GFP expression vector-transfected CHO cell line produced in EXAMPLE 1 (CHO/hGPR39-GFP) was diluted in 3×10^4 cells/100 μl. The dilution was dispensed onto a Black walled 96-well plate (Costar) in 100 μl each per well, followed by incubation overnight in a CO2 incubator. Changes in intracellular calcium levels were determined by the following method using FLIPR (Molecular Device). In 21 μl of DMSO (DOJIN), 50 μg of Fluo-3AM (DOJIN) was dissolved and an equal volume of 20% Pluronic acid (Molecular Probes) was added to the solution. After mixing them, the resulting mixture was added to 10.6 ml of assay buffer [prepared by adding 20 ml of 1M HEPES (pH 7.4) (DOJIN) to HBSS (Invitrogen Corp.) and further adding to the solution 10 ml of a solution mixture, which mixture was prepared by dissolving 710 mg of Probenecid (Sigma) in 5 ml of 1N NaOH and then adding thereto 5 ml of the HBSS/HEPES solution above] supplemented with 105 μl of fetal calf serum to prepare a fluorescent dye solution. The medium in the cell plate was removed. Immediately thereafter, the fluorescent dye solution was dispensed in 100 μl each/well and the cells were incubated in a CO2 incubator for an hour so that the fluorescent dye was taken up into the cells. The cells after the incubation were washed with the assay buffer described above and set on FLIPR. Compounds of metal elements to be added to the cells were diluted to the respective concentration with the assay buffer. The dilutions were dispensed onto plates for ligands and set on FLIPR. Following the pre-treatment above, changes in intracellular calcium levels after addition of metal elements were determined by FLIPR to study agonist activities.

Experiment [1] relates to CHO cells where the receptor was not expressed or GPCR other than GPR39 was expressed. The experiment is classed as cell-based. The following applies: FLIPR; control cells.
The subject of experiment [2] is bladder (micturition) of conscious rats. In words: Cystometry in conscious rats with intravesical infusion. Type of experiment: in vivo, rat. The following applies: female SD rats, protamine sulfate 10 mg/mL in PBS infused into the bladder for an hour. How it is done:
Female SD rats of 9-10 weeks old were anaesthetized by intramuscular injection with 0.1 ml/100 g of a solution obtained by mixing ketamine (50 mg/mL) and xylazine (20 mg/mL) in 5:1. The bladder was then exposed via a midline incision and a hole was made with a 20-G needle to insert a polyethylene tube (PE-50), which tube was sutured to the bladder with cotton thread. The polyethylene tube cannulated into the bladder was cut at a length of about 1 cm, which was connected to a silicon tube (No. 00) and exposed to the dorsum through the skin. The animals were housed in individual cages until they were used for the experiments.
One day after the surgery, the animal was anesthetized with halothane and placed in Ballman cages under restricted conditions. After a three-way cock was connected to the tube cannulated into the bladder, a saline infusion tube was connected to a cystometry tube (resistance to infusion). An electronic scale was placed under the Ballman cages and the micturition volume was measured at the same time. When the anesthetic completely worn off, the infusion of saline into the bladder commenced and the bladder pressure and micturition volume were recorded on a personal computer via an A-D converter (MP-100, BIOPAC Systems) and analyzed using a dedicated software (AcqKnowledge, BIOPAC Systems).
Saline was infused into the bladder at the rate of 6 ml/hr and the infusion was continued for 1 or 2 hours until stable micturition was recorded. In order to enhance the permeability of a drug into the bladder, protamine sulfate (10 mg/mL in PBS) was infused into the bladder for an hour (Chuang Y, et. al., 2003, Urology, 63, 664-670). […] Then, saline was reinfused into the bladder and micturition was recorded at least 2 hours until protamine was completely washed off. […] Mean micturition intervals during from about 30 minutes to about 60 minutes after starting the infusion of CuCl2 were calculated to find a ratio to mean micturition intervals for about 30 minutes before the infusion of CuCl2 (% of the pre-value).

Regarding `[Cl][Cd][Cl]` [cadmium chloride], in the experiment with rat GPR39, the “intracellular calcium levels of CHO/rGPR39” value is reported as “dose-dependently increased”. Further, the “intracellular calcium levels of CHO/mGPR39” value on mouse GPR39 was “dose-dependently increased”. Moreover, at human GPR39, the “intracellular calcium levels of CHO/hGPR39-GFP” value is “dose-dependently increased”. Moreover, the “intracellular calcium response in CHO cells without the receptor or with GPCR other than GPR39” value in experiment [1] is recorded as “no such response was observed”.

Turning to `[Cl-].[Cl-].[Zn+2]` [zinc chloride], the “intracellular calcium levels of CHO/rGPR39” value in the experiment on rat GPR39 is “dose-dependently increased”. For the same compound, the “intracellular calcium levels of CHO/mGPR39” value on mouse GPR39 is reported as “dose-dependently increased”. In addition, the “intracellular calcium levels of CHO/hGPR39-GFP” value at human GPR39 is on record as “dose-dependently increased”. Further, the “intracellular calcium response in CHO cells without the receptor or with GPCR other than GPR39” value in experiment [1] was “no such response was observed”.

For the compound `[Cl][Co][Cl]` [cobalt chloride], the “intracellular calcium levels of CHO/rGPR39” value with rat GPR39 was “dose-dependently increased”. For the same compound, the “intracellular calcium levels of CHO/mGPR39” value at mouse GPR39 is “dose-dependently increased”.

On to protamine sulfate, for which the “micturition intervals compared to those prior to the infusion” value in experiment [2] is listed as “Any substantial change in micturition intervals was noted”.
